In patent US20160206623A9, “Composition For Prevention of Vasoactivity in the Treatment of Blood Loss and Anemia” (priority 2012, published 2016):

System: segments of the rat thoracic aorta (RTA)
Assay: Vasoactivity (isometric tension) of rat thoracic aorta rings in tissue bath

COc1ccc([C@@H]2Sc3ccccc3N(CCN(C)C)C(=O)[C@@H]2OC(C)=O)cc1 [DLT, Diltiazam]
vasoconstriction with HES + PHE (HES 4.4 uM + PHE, DLT 10^-7 to 10^-5 M (FIG. 8, a2-d2)): the vasoconstriction is reduced | effect on PHE induced vasoconstriction (PHE without hemoglobin, different concentrations of additive (DLT 10^-7 to 10^-5 M)): reduces the vasoconstrictive effect of PHE

CNC[C@H](O)c1cccc(O)c1 [PHE, Phenylephrine]
tension of the RTA (PHE added after SFH, preliminary experiments): increase the tension of the RTA significantly

COc1cc2nc(N3CCN(C(=O)C4CCCO4)CC3)nc(N)c2cc1OC (stereo not shown) [TER, Terazosin]
vasoconstrictive effect of SFH (terazosin suboptimal 10^-8 M, SFH+PHE (FIG. 9)): reduces the vasoconstrictive effect of SFH
